The text below walks through data of ChEMBL document CHEMBL3580627, “Dibenzazepines and dibenzoxazepines as sodium channel blockers” (Bioorg Med Chem Lett, 2014).

Values after ≈ are worked out from the molar mass of the structure shown. Some results are limits rather than exact numbers.

Data set [1] is described as follows: in vitro. The conditions noted are these: human, liver microsomes. Background: Microsomes from liver hold many membrane-bound enzymes, among them those of drug oxidation.
Description: Metabolic stability in human liver microsomes assessed as compound remaining at 1 uM after 30 mins
Data set [2] is described as follows: Kinetic solubility of the compound at pH 1.2. The conditions noted are these: buffer, read-out: Kinetic_solubility. The class given is physicochemical.
Data set [3] in a line: Kinetic solubility of the compound at pH 6.8. The class given is physicochemical. The conditions noted are these: buffer, read-out: Kinetic_solubility.
Data set [4] can be described thus: in vitro. The conditions noted are these: rat, liver microsomes.
Description: Metabolic stability in rat liver microsomes assessed as compound remaining at 1 uM after 30 mins
The target in data set [5] is T1, Sodium channel protein type 9 subunit alpha (Homo sapiens, UniProt Q15858). The data set is described as follows: Inhibition of Nav1.7 (unknown origin) by electrophysiological assay.
T1 sequence (Q15858 whole entry): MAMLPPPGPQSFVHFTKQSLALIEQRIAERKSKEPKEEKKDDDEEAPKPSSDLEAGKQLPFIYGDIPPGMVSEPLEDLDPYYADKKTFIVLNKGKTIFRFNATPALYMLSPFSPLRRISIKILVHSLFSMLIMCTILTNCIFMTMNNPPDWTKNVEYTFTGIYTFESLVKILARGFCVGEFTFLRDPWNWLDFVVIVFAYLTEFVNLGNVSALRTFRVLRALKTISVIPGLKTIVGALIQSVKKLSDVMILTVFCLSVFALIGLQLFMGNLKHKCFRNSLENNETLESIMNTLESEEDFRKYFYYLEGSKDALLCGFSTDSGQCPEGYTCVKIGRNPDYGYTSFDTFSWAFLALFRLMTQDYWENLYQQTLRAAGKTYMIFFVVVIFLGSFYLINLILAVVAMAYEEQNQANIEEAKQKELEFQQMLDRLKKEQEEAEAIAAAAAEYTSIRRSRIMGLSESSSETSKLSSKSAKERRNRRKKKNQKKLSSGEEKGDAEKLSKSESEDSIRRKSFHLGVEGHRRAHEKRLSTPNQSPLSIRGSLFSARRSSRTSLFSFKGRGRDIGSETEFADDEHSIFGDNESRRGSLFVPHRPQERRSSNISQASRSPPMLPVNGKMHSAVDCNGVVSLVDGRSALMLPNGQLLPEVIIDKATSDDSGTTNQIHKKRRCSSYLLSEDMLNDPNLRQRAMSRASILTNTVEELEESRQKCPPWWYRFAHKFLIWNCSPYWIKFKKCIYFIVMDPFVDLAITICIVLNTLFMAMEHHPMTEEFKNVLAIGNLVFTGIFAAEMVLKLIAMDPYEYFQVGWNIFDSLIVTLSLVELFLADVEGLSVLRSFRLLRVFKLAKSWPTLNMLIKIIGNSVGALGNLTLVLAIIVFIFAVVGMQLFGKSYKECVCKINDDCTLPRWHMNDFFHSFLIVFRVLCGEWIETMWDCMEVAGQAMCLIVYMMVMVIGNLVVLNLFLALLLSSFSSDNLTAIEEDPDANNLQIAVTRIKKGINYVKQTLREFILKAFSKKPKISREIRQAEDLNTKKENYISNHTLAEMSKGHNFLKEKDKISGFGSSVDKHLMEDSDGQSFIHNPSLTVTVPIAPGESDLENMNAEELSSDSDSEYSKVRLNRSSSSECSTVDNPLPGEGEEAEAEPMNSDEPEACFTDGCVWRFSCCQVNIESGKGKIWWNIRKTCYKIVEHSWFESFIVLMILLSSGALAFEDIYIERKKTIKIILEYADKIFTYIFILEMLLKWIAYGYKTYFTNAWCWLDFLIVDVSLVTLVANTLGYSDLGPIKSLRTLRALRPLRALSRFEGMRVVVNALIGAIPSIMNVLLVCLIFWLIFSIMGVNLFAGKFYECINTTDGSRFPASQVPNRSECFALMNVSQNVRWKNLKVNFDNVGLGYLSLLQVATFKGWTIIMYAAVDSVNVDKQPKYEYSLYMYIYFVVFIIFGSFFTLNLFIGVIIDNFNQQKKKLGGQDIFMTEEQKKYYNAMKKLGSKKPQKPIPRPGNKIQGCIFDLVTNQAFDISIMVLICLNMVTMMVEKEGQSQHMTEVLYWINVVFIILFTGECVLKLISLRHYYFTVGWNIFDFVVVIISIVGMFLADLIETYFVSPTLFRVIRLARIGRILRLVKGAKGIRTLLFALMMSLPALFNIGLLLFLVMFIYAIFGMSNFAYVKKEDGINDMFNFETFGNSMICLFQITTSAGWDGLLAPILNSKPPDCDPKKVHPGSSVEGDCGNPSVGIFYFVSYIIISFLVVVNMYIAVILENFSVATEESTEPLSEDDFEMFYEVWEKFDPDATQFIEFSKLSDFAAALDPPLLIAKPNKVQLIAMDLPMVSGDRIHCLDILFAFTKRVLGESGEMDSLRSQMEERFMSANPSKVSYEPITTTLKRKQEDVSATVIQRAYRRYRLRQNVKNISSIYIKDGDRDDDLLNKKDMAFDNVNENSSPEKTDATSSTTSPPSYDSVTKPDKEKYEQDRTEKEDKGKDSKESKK
The target in data set [6] is T1, Sodium channel protein type 9 subunit alpha. Put plainly: Inhibition of Nav1.7 (unknown origin) expressed in CHO cells after 45 mins by FLIPR assay. The class given is cell-based.

Take `CN1Cc2cc(-c3cccc([C@H](O)[C@@H](O)C(N)=O)n3)ccc2Oc2ccc(C(F)(F)F)cc21`: the share remaining at 0.5 h, 1 µM in the data set “in vitro [1]” was 94%; in the data set “in vitro [4]” it was 93%. Besides, the solubility kinetic in data set [2] was 70 µM (≈ 32.2 µg/mL); in data set [3], 0.8 µM (≈ 0.368 µg/mL). The Ki in data set [5] stood at 920 nM.
The matching figures for `CN1Cc2cc(-c3cccc([C@H](O)CO)n3)ccc2Oc2ccc(C(F)(F)F)cc21`: 98%, 94%, 70 µM (≈ 29.1 µg/mL), 0.4 µM (≈ 0.167 µg/mL) and 440 nM.
For the compound `CC(=O)N1c2ccc(Cl)cc2CCc2cc(-c3cccc(C(N)=O)n3)ccc21`, the solubility kinetic in data set [2] was found to be 12 µM (≈ 4.7 µg/mL); in data set [3] it was 7 µM (≈ 2.74 µg/mL).
Regarding `CN1c2ccc(-c3cccc([C@H](O)CO)n3)cc2CCc2cc(C(F)(F)F)ccc21`, the share remaining at 0.5 h, 1 µM in “in vitro [1]” turned out to be 79%; in the data set “in vitro [4]”, 72%. In addition, the results for the solubility kinetic in data set [2] and in data set [3] were 60 µM (≈ 24.9 µg/mL) and 0.1 µM (≈ 0.0414 µg/mL), respectively.
In the case of `CCN1c2ccc(Cl)cc2CCc2cc(-c3cccc(C(N)=O)n3)ccc21`, the IC50 in data set [6] is over 10000 nM. In addition, the solubility kinetic in data set [2] stood at 0.2 µM (≈ 0.0756 µg/mL).
`NC(=O)N1c2ccccc2C=Cc2ccccc21` [CARBAMAZEPINE]: the figures for the fraction remaining at 0.5 h, 1 µM in “in vitro [1]” and in “in vitro [4]” were 38% and 37%, respectively. The results for the solubility kinetic in data set [2] and in data set [3] were 75 µM (≈ 17.7 µg/mL) and 74 µM (≈ 17.5 µg/mL), respectively.
Take `OC[C@@H](O)c1cccc(-c2ccc3c(c2)CNc2cc(C(F)(F)F)ccc2O3)n1`: the solubility kinetic worked out at 80 µM (≈ 32.2 µg/mL) in data set [2] and 12 µM (≈ 4.83 µg/mL) in data set [3].
With `NC(=O)CN1Cc2cc(-c3cccc([C@H](O)CO)n3)ccc2Oc2ccc(C(F)(F)F)cc21`, half-maximal inhibition in data set [6] (IC50) required 1800 nM. In addition, the figures for the share remaining at 0.5 h, 1 µM in “in vitro [1]” and in the data set “in vitro [4]” were 83% and 91%, respectively. Further, the solubility kinetic in data set [2] is 80 µM (≈ 36.8 µg/mL); in data set [3], 1 µM (≈ 0.459 µg/mL).
Take `CN1Cc2cc(C(F)(F)F)ccc2Oc2ccc(-c3cccc([C@H](O)CO)n3)cc21`: the results for the amount remaining at 0.5 h, 1 µM in “in vitro [1]” and in the data set “in vitro [4]” were 91% and 74%, respectively. Besides, the values for the solubility kinetic in data set [2] and in data set [3] were 73 µM (≈ 30.4 µg/mL) and 6 µM (≈ 2.5 µg/mL), respectively. The Ki in data set [5] was 560 nM.
On to `NC(=O)c1cccc(-c2ccc3c(c2)CCc2cc(Cl)ccc2N3)n1`, for which the solubility kinetic in data set [2] was found to be 0.2 µM (≈ 0.07 µg/mL).

What is called share remaining is what is left of the initial amount, in per cent. A lower share remaining goes with more turnover. The term Ki denotes the equilibrium dissociation constant of an inhibitor or competing ligand from its target. Lower therefore signals higher affinity. The term IC50 denotes the concentration that gives 50% inhibition.
